Laboratory results reported in US10039806B2, “Methods and compositions for treating antiprogestin-resistant cancers” (Fundación Sales, priority 2011, dated 2018).

Experiments:
HI-responsive tumors [1] = conditions: daily doses of 10 mg/kg; cited from earlier work
[2] = test system: mammary hyperplasias and carcinomas; conditions: pellets of 35 mg; cited from earlier work
mammary gland = conditions: cited from earlier work
meningiomas = conditions: 200 mg/day for 2-31 months; after one year; cited from earlier work
T47D-YB cells = conditions: 100 nM; cited from earlier work
[3] = test system: prostate and ovarian cancer xenografts; conditions: 50 mg/kg/day; cited from earlier work
[4] = test system: MXT mouse model of breast cancer; conditions: 1 or 10 mg/kg/day from one day post-transplantation; cited from earlier work
IBH-6-PRA tumors = experiment: Xenograft in nude mice; type: in vivo, human
Text: BH-6 cell line was developed from an invasive ductal breast carcinoma (1). IBH-6 cells express basal levels of hormone receptors, they are tumorigenic and in vivo express higher levels of PRB than PRA (2). Cells were transfected with human PRB, PRA (pSG5-PRB, pSG5-PRA, kindly provided by K. Horwitz) or with the empty vector (pSG5), together with a plasmid encoding the neomycin resistance gene pIRES-N1(3), using Lipofectamine transfection reagent (Invitrogen) following the manufacturer's instructions. Transfected and selected cells were cultured in medium supplemented with […] G418 (neomycin analogue, GIBCO). The expression of PRB and PRA were analyzed by western blot and immunofluorescence (using Ab7 and Ab6 antibodies from Thermo Fisher). T47D-YA or YB were kindly provided by K. Horwitz and cultured as previously described (4).
Transfected and selected cells were grown up to confluence, washed with PBS, detached with 0.25% trypsin, centrifuged at 1000 rpm for 10 min and resuspended in a final concentration of 10^6 (IBH-6) or 5×10^6 (T47D) cells per 100 μl of culture medium. The cells were sc inoculated into the right flank of nu/nu (IBH-6) or NOD/LtSz-scid/IL-2Rgamma null (T47D-YA or -YB cells) female mice. Only in experiments involving T47D cells E2 silastic pellets (0.5 mg) were implanted sc into the back of the animals one week prior tumor cell inoculation and 70 μl of Matrigel were mixed with the cell suspension at the moment of injection. MFP (6 mg) silastic pellets were sc implanted when tumors reached 20-40 mm^2. For T47D cells, experiments were repeated inoculating both cell types (T47D-YA or -YB) simultaneously in the left or right flank of the mouse, respectively.
Cytosolic or nuclear extracts were processed for western blots as described previously (5). The cells were lysed using Mammalian Protein Extraction Reagent (Pierce, Rockford, Ill.) according to the manufacturer's instructions. […] The band intensities from 3-4 different samples in different western blots were quantified using Image Quant software.

C4-HI = experiment: MPA breast cancer model, responsive tumor in vivo; design: species or system mouse
[5] = test system: DMBA-induced mammary tumors; conditions: cited from earlier work
mammary glands = conditions: 50 mg/every other day, three months; cited from earlier work
HI-responsive tumors [6] = experiment: MPA breast cancer model, HI-responsive tumors in vivo; design: species or system mouse; conditions: 1 mg/kg/day
breast cancer = conditions: cited from earlier work
[7] = test system: primary cultures of responsive tumors; experiment: Primary cultures of responsive tumors of the MPA model; type: cell-based, mouse
T47D cells = conditions: cited from earlier work
[8] = 28 postmenopausal PR+ patients, 200 mg/day

CC#C[C@]1(O)CC[C@H]2[C@@H]3CCC4=CC(=O)CCC4=C3[C@@H](c3ccc(N(C)C)cc3)C[C@@]21C [RU-486, mifepristone]
tumor regression (HI-responsive tumors [1]): regress
induction of hyperplasia or carcinoma [2]: prevented the induction of either hyperplasia or carcinoma
PR activation in luminal cells (mammary gland; (5 mg/kg) body weight): induced activation of the PR in luminal cells to an even greater degree than did the pure agonist R5020
MPA-induced branching (mammary gland; BALB/c female mice, 10 mg/kg daily, one week): reverted MPA-induced branching
mammary hyperplasia (mammary gland; PR-A transgenic mice or FGF2-treated mice): unable to revert mammary hyperplasia
tumor response (meningiomas): Five out of thirteen tumors responded
cell proliferation (T47D-YB cells): increased cell proliferation
xenograft growth [3]: inhibitory
tumor take and stimulatory effects of E2 and MPA [4]: inhibited both tumor take and the stimulatory effects of E2 and MPA
in vivo growth (IBH-6-PRA tumors; MFP 6 mg pellet, p<0.05): inhibited
expression of MYC (IBH-6-PRA tumors; western blot, p<0.01): significantly inhibited
expression of CCND1 (IBH-6-PRA tumors; western blot, p<0.05): significantly inhibited
differentiation (histology) (C4-HI; mouse, in vivo): increase in differentiation
tumor growth (C4-HI; tumors with higher PR-A than PR-B, FIG. 15): completely inhibited
tumor development ([5]; 10 mg/kg/day for 3 weeks): delayed tumor development
tumor growth ([5]; 10 mg/kg/day for 3 weeks): inhibited tumor growth
PR (and ER) expression ([5]; rat, in vivo): induced down regulation of the PR
cell proliferation in mammary gland aspirates (mammary glands): Inhibition of cell proliferation
tumor growth (HI-responsive tumors [6]): inhibitory effects
response rate (breast cancer; 22 patients, TAM-resistant metastases, 200 mg/day, following 3 months of therapy): 18%
side effects: lethargy (breast cancer; 28 postmenopausal PR+ patients, 200 mg/day, more than 8 weeks): 68%
partial response (breast cancer; [8]): 3 patients
side effects: anorexia (breast cancer; [8]): 39%
side effects: hot flashes (breast cancer; [8]): 50%
side effects: skin rash (breast cancer; [8]): 32%
side effects: vomiting (breast cancer; [8]): 29%
clinical response (breast cancer; eleven patients with metastases, 200-400 mg daily p.o.): objective response in one patient, six patients showed temporal stabilization, and four patients had progressive disease
ERK phosphorylation [7]: increased ERK phosphorylation
effects on T47D cells (T47D cells; 5% FCS): inhibitory effects
proliferation of T47D and MCF-7 cells (T47D cells; MIF at micromolar concentrations): stimulate the proliferation
E2-induced cell proliferation (T47D cells; clone 11, ER- and PR-positive): specifically inhibit E2-induced cell proliferation
